Earlier results in patent US5462964A, “Dipeptide boronic acid inhibitors of trypsin-like enzymes” (The Du Pont Merck Pharmaceutical Company, priority 1993, dated 1995).
Each block holds one molecule with its values, some of them ahead of it.

What was measured:
thrombin [1] = molecular target: T1, thrombin (Homo sapiens, UniProt P00734); settings: reversible inhibitor of thrombin; literature / EP 293 881
thrombin [2] = molecular target: T1, thrombin; settings: Kettner and Shaw Thromb. Res. 14, 969 (1979)
blood coagulation = settings: both in vitro and in vivo; EP 293 881
chymotrypsin = chymotrypsin (Bos taurus, UniProt P00766); settings: Matteson et al. J. Am. Chem. Soc. 103, 5241 (1981)

- Ki (thrombin [1]): 0.075 µM
SMILES: CC(=O)N[C@H](Cc1ccccc1)C(=O)N1CCC[C@H]1C(=O)N[C@H](C=O)CCCNC(=N)N [Ac-D-Phe-Pro-Arg-H]

SMILES: CC(=O)NC(Cc1ccccc1)C(=O)N1CCCC1C(=O)NC(CCCNC(=N)N)C(=O)CCl [Ac-D-Phe-Pro-ArgCH2 Cl]
- inhibitor of human thrombin (thrombin [2]): potent and selective irreversible inhibitor

SMILES: CC(=O)N[C@H](Cc1ccccc1)C(=O)N1CCC[C@H]1C(=O)N[C@@H](CCCN=C(N)N)B(O)O [Ac-D-Phe-Pro-boroArgOH]
- inhibition of blood coagulation (blood coagulation): highly effective

- Ki (chymotrypsin): 4 µM
SMILES: CC(=O)N[C@@H](Cc1ccccc1)B(O)O [Ac-boroPhe-OH, (R)-1-acetamido-2-phenylethane boronic acid]
